Results: ChEMBL document CHEMBL5096208, “Installation of Pargyline, a LSD1 Inhibitor, in the HDAC Inhibitory Template Culminated in the Identification of a Tractable Antiprostate Cancer Agent” (J Med Chem, 2021)
Calls of active or inactive are those of the source. No cut-off for these calls is given here.

Experiments:
PC-3 [1] = experiment: Antiproliferative activity against human PC-3 cells assessed as cell growth inhibition incubated for 48 hrs by MTT assay; format: functional
DU-145 [2] = experiment: Antiproliferative activity against human DU-145 cells assessed as cell growth inhibition incubated for 48 hrs by MTT assay; format: functional
PC-3 [3] = experiment: Antitumor activity against human PC-3 cells xenografted in athymic nude mouse assessed as tumor growth inhibition at 20 mg/kg, ip administered every 4 days for 4 doses and measured upto 25 days by caliper method relative to control; format: functional; settings: PC-3, 600 h, time <= 25 day, read-out: TGI
[4] = Toxicity in athymic nude mouse xenografted with human PC-3 cells assessed as change in body weight at 50 to 100 mg/kg, po qd measured upto 25 days; format: organism-based; settings: in vivo, 600 h, dose 50-100 mg/kg, time < 25 day
[5] = Toxicity in athymic nude mouse xenografted with human PC-3 cells assessed as change in body weight at 20 mg/kg, ip administered every 4 days for 4 doses and measured upto 25 days; format: organism-based; settings: in vivo, 600 h, time < 25 day
DU-145 [6] = experiment: Antitumor activity against human DU-145 cells xenografted in athymic nude mouse assessed as tumor growth inhibition at 20 mg/kg, ip administered every 4 days for 5 doses and measured upto 60 days by caliper method relative to control; format: functional; settings: DU-145, 1440 h, time <= 60 day, read-out: TGI
[7] = Toxicity in athymic nude mouse xenografted with human DU-145 cells assessed as change in body weight at 100 to 200 mg/kg, po administered every 2 days and measured upto 60 days; format: organism-based; settings: in vivo, 1440 h, dose 100-200 mg/kg, time < 60 day
[8] = Toxicity in athymic nude mouse xenografted with human DU-145 cells assessed as change in body weight at 20 mg/kg, ip administered every 4 days for 5 doses and measured upto 60 days; format: organism-based; settings: in vivo, 1440 h, time < 60 day
[9] = Toxicity in athymic nude mouse xenografted with human DU-145 cells assessed as change in body weight at 50 mg/kg, po qd measured upto 60 days; format: organism-based; settings: in vivo, 1440 h, time < 60 day
PC-3 [10] = experiment: Antiproliferative activity against human PC-3 cells assessed as cell growth inhibition at upto 10 uM; format: functional, cell-based; settings: time 48.0 hrs

Structure (SMILES) | GI50 (PC-3 [1]) | GI50 (DU-145 [2]) | also measured
CNC(=O)c1ccc(N2C(=S)N(c3ccc(C#N)c(C(F)(F)F)c3)C(=O)C2(C)C)cc1F [ENZALUTAMIDE] | > 10 µM | > 10 µM | –
C#CCN(C)Cc1cccc(NC(=O)CCCCC(=O)NO)c1 | 5.15 µM | 9.75 µM | –
C#CCN(C)Cc1cccc(NC(=O)CCCCCCCC(=O)NO)c1 | 4.07 µM | 3.78 µM | –
C#CCN(C)Cc1ccc(NS(=O)(=O)c2ccc(/C=C/C(=O)NO)cc2)cc1 | 0.71 µM | 0.96 µM | –
C#CCN(C)Cc1ccc(NC(=O)CCCCCC(=O)NO)cc1 | > 10 µM | > 10 µM | –
C#CCN(C)Cc1ccc(NS(=O)(=O)c2cccc(/C=C/C(=O)NO)c2)cc1 | 0.367 µM | 0.21 µM | –
C#CCN(C)Cc1cccc(NCc2ccc(/C=C/C(=O)NO)cc2)c1 | 0.85 µM | 0.54 µM | –
CC(=O)O[C@H]1C(=O)[C@@]2(C)[C@H]([C@H](OC(=O)c3ccccc3)[C@]3(O)C[C@H](OC(=O)[C@H](O)[C@@H](NC(=O)c4ccccc4)c4ccccc4)C(C)=C1C3(C)C)[C@]1(OC(C)=O)CO[C@@H]1C[C@@H]2O [PACLITAXEL] | – | – | inhibition in vivo at 20 mg/kg (PC-3 [3]): 47.8%; Activity [4]: Non-Toxic; Activity [5]: Non-Toxic; inhibition in vivo at 20 mg/kg (DU-145 [6]): 47%; Activity [7]: Non-Toxic; Activity [8]: Non-Toxic; Activity [9]: Non-Toxic
C#CCN(C)Cc1cccc(NC(=O)CCC(=O)NO)c1 | > 10 µM | > 10 µM | –
C#CCN(C)Cc1cccc(NC(=O)CCCCCCCCC(=O)NO)c1 | 1.79 µM | 2.94 µM | –
C#CCN(C)Cc1cccc(NCc2ccc(C(=O)NO)cc2)c1 | > 10 µM | > 10 µM | –
C#CCN(C)Cc1cccc(NS(=O)(=O)c2cccc(/C=C/C(=O)NO)c2)c1 | 1.23 µM | 0.21 µM | –
Cn1cc(-c2ccc(S(=O)(=O)n3ccc(/C=C/C(=O)Nc4ccccc4N)c3)cc2)cn1 | – | – | Activity (PC-3 [10]): Active
C#CCN(C)Cc1cccc(NS(=O)(=O)c2ccc(/C=C/C(=O)NO)cc2)c1 | 2.23 µM | 2.35 µM | –
C#CCN(C)Cc1ccc(NCc2ccc(C(=O)NO)cc2)cc1 | > 10 µM | > 10 µM | –
C#CCN(C)Cc1ccc(NC(=O)CCCCCCCCC(=O)NO)cc1 | 4.26 µM | 2.74 µM | –
C#CCN(C)Cc1ccc(NC(=O)CCCCCCC(=O)NO)cc1 | 2.28 µM | 1.51 µM | –
C#CCN(C)Cc1ccc(NC(=O)CCCCCCCC(=O)NO)cc1 | 7.16 µM | 3.4 µM | –
C#CCN(C)Cc1ccc(NC(=O)CCCC(=O)NO)cc1 | > 10 µM | > 10 µM | –
Nc1ccccc1NC(=O)c1ccc(CCCC(=O)Nc2ccc([C@H]3C[C@@H]3N)cc2)cc1 | – | – | Activity (PC-3 [10]): Active
C#CCN(C)Cc1ccc(NCc2ccc(/C=C/C(=O)NO)cc2)cc1 | 0.75 µM | 0.56 µM | –
C#CCN(C)Cc1ccccc1 [PARGYLINE] | 197 µM | 219 µM | –
C[C@]12CC[C@H](O)CC1=CC[C@@H]1[C@@H]2CC[C@]2(C)C(c3cccnc3)=CC[C@@H]12 [ABIRATERONE] | > 10 µM | > 10 µM | –
C#CCN(C)Cc1cccc(NC(=O)CCCC(=O)NO)c1 | > 10 µM | > 10 µM | –
C#CCN(C)Cc1ccc(NC(=O)CCCCC(=O)NO)cc1 | > 10 µM | > 10 µM | –
C#CCN(C)Cc1cccc(NC(=O)CCCCCC(=O)NO)c1 | 4.63 µM | 4.29 µM | –
C#CCN(C)Cc1ccc(NC(=O)CCC(=O)NO)cc1 | > 10 µM | > 10 µM | –
